Assay results: the supplement of paper PMC10307832

Assays:
Test in all cases: relative viability (nuclei count vs DMSO), 5 days (fraction); higher = more cells survive
201T = test system: 201T
In short: (§1)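 The day after seeding in 1536-well plates, lung cancer cell lines were treated by pin tool with a single drug, or with a fixed anchor-drug dose together with five library-drug doses (not always all listed) in √10 steps. After 5 days, a combined fix-and-stain solution (final 0.05% Triton X-100, 1% formaldehyde, 1 ug/ml Hoechst) was added. Nuclei counted on 4× images gave relative viability as treated counts over vehicle counts, reported as the median of duplicate plates.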

Calu-6 = test system: Calu-6
In short: as §1

EBC-1 = test system: EBC-1
In short: as §1

EMC-BAC-2 = test system: EMC-BAC-2
In short: as §1

EPLC-272H = test system: EPLC-272H
In short: as §1

HCC-78 = test system: HCC-78
In short: as §1

IA-LM = test system: IA-LM
In short: as §1

LCLC-103H = test system: LCLC-103H
In short: as §1

NCI-H1355 = test system: NCI-H1355
In short: as §1

NCI-H1666 = test system: NCI-H1666
In short: as §1

NCI-H1755 = test system: NCI-H1755
In short: as §1

NCI-H1792 = test system: NCI-H1792
In short: as §1

NCI-H1793 = test system: NCI-H1793
In short: as §1

NCI-H1975 = test system: NCI-H1975
In short: as §1

NCI-H2126 = test system: NCI-H2126
In short: as §1

NCI-H2170 = test system: NCI-H2170
In short: as §1

NCI-H2228 = test system: NCI-H2228
In short: as §1

NCI-H441 = test system: NCI-H441
In short: as §1

NCI-H520 = test system: NCI-H520
In short: as §1

NCI-H727 = test system: NCI-H727
In short: as §1

NCI-H838 = test system: NCI-H838
In short: as §1

PC-3 [JPC-3] = test system: PC-3 [JPC-3]
In short: as §1

SK-MES-1 = test system: SK-MES-1
In short: as §1

SW 1573 = test system: SW 1573
In short: as §1

In the case of `Nc1cccc2c1CN(C1CCC(=O)NC1=O)C2=O` (centres undefined) [Lenalidomide] + CS(=O)(=O)N1CCN(Cc2cc3nc(-c4cccc5[nH]ncc45)nc(N4CCOCC4)c3s2)CC1 [Pictilisib] (partner 1 µM), the relative viability (201T; first compound 0.253 µM) is reported as 0.72, the relative viability (201T; first compound 0.8 µM) is reported as 0.532 and the relative viability (201T; first compound 2.53 µM) is reported as 0.678. For the same compound, the relative viability (201T; first compound 8 µM) was 0.603, the relative viability (Calu-6; first compound 0.253 µM) was 0.861 and the relative viability (Calu-6; first compound 0.8 µM) was 1.01. For the same compound, the relative viability (Calu-6; first compound 2.53 µM) was 1.06, the relative viability (Calu-6; first compound 8 µM) was 0.969 and the relative viability (EBC-1; first compound 0.253 µM) was 0.398. For the same compound, the relative viability (EBC-1; first compound 0.8 µM) was 0.323, the relative viability (EBC-1; first compound 2.53 µM) was 0.498 and the relative viability (EBC-1; first compound 8 µM) was 0.512. For the same compound, the relative viability (EMC-BAC-2; first compound 0.253 µM) was 0.532, the relative viability (EMC-BAC-2; first compound 0.8 µM) was 0.474 and the relative viability (EMC-BAC-2; first compound 2.53 µM) was 0.535. It also gave a relative viability (EMC-BAC-2; first compound 8 µM) of 0.411, a relative viability (EPLC-272H; first compound 0.253 µM) of 0.325 and a relative viability (EPLC-272H; first compound 2.53 µM) of 0.361. The relative viability (EPLC-272H; first compound 8 µM) was 0.274, the relative viability (HCC-78; first compound 0.253 µM) was 0.233 and the relative viability (HCC-78; first compound 0.8 µM) was 0.185. It also gave a relative viability (HCC-78; first compound 2.53 µM) of 0.232, a relative viability (HCC-78; first compound 8 µM) of 0.174 and a relative viability (IA-LM; first compound 0.253 µM) of 0.37. It also gave a relative viability (IA-LM; first compound 0.8 µM) of 0.375, a relative viability (IA-LM; first compound 2.53 µM) of 0.338 and a relative viability (IA-LM; first compound 8 µM) of 0.359. For the same compound, the relative viability (LCLC-103H; first compound 0.253 µM) was 0.603, the relative viability (LCLC-103H; first compound 0.8 µM) was 0.547 and the relative viability (LCLC-103H; first compound 2.53 µM) was 0.621. For the same compound, the relative viability (LCLC-103H; first compound 8 µM) was 0.556, the relative viability (NCI-H1355; first compound 0.253 µM) was 0.419 and the relative viability (NCI-H1355; first compound 0.8 µM) was 0.258. It also gave a relative viability (NCI-H1355; first compound 2.53 µM) of 0.429, a relative viability (NCI-H1355; first compound 8 µM) of 0.259 and a relative viability (NCI-H1666; first compound 0.253 µM) of 0.471. The relative viability (NCI-H1666; first compound 0.8 µM) was 0.372, the relative viability (NCI-H1666; first compound 2.53 µM) was 0.495 and the relative viability (NCI-H1666; first compound 8 µM) was 0.488. For the same compound, the relative viability (NCI-H1755; first compound 0.253 µM) was 0.407, the relative viability (NCI-H1755; first compound 0.8 µM) was 0.322 and the relative viability (NCI-H1755; first compound 2.53 µM) was 0.521. For the same compound, the relative viability (NCI-H1755; first compound 8 µM) was 0.325, the relative viability (NCI-H1792; first compound 0.253 µM) was 0.298 and the relative viability (NCI-H1792; first compound 0.8 µM) was 0.192. The relative viability (NCI-H1792; first compound 2.53 µM) was 0.264, the relative viability (NCI-H1792; first compound 8 µM) was 0.184 and the relative viability (NCI-H1793; first compound 0.253 µM) was 0.554. For the same compound, the relative viability (NCI-H1793; first compound 0.8 µM) was 0.289, the relative viability (NCI-H1793; first compound 2.53 µM) was 0.409 and the relative viability (NCI-H1793; first compound 8 µM) was 0.228. The relative viability (NCI-H1975; first compound 0.253 µM) was 0.316, the relative viability (NCI-H1975; first compound 0.8 µM) was 0.228 and the relative viability (NCI-H1975; first compound 2.53 µM) was 0.278. The relative viability (NCI-H1975; first compound 8 µM) was 0.223, the relative viability (NCI-H2126; first compound 0.253 µM) was 0.501 and the relative viability (NCI-H2126; first compound 0.8 µM) was 0.423. It also gave a relative viability (NCI-H2126; first compound 2.53 µM) of 0.458, a relative viability (NCI-H2126; first compound 8 µM) of 0.421 and a relative viability (NCI-H2170; first compound 0.253 µM) of 0.344. For the same compound, the relative viability (NCI-H2170; first compound 0.8 µM) was 0.264, the relative viability (NCI-H2170; first compound 2.53 µM) was 0.342 and the relative viability (NCI-H2170; first compound 8 µM) was 0.259. The relative viability (NCI-H2228; first compound 0.253 µM) was 0.42, the relative viability (NCI-H2228; first compound 0.8 µM) was 0.714 and the relative viability (NCI-H2228; first compound 2.53 µM) was 0.724. The relative viability (NCI-H2228; first compound 8 µM) was 0.355, the relative viability (NCI-H441; first compound 0.253 µM) was 0.383 and the relative viability (NCI-H441; first compound 0.8 µM) was 0.453. The relative viability (NCI-H441; first compound 2.53 µM) was 0.522, the relative viability (NCI-H441; first compound 8 µM) was 0.433 and the relative viability (NCI-H520; first compound 0.253 µM) was 0.353. The relative viability (NCI-H520; first compound 0.8 µM) was 0.362, the relative viability (NCI-H520; first compound 2.53 µM) was 0.293 and the relative viability (NCI-H520; first compound 8 µM) was 0.259. For the same compound, the relative viability (NCI-H727; first compound 0.253 µM) was 0.418, the relative viability (NCI-H727; first compound 2.53 µM) was 0.44 and the relative viability (NCI-H727; first compound 8 µM) was 0.306. The relative viability (NCI-H838; first compound 0.253 µM) was 0.505, the relative viability (NCI-H838; first compound 0.8 µM) was 0.318 and the relative viability (NCI-H838; first compound 2.53 µM) was 0.518. It also gave a relative viability (NCI-H838; first compound 8 µM) of 0.387, a relative viability (PC-3 [JPC-3]; first compound 0.253 µM) of 0.781 and a relative viability (PC-3 [JPC-3]; first compound 0.8 µM) of 0.609. The relative viability (PC-3 [JPC-3]; first compound 2.53 µM) was 0.98, the relative viability (PC-3 [JPC-3]; first compound 8 µM) was 0.734 and the relative viability (SK-MES-1; first compound 0.253 µM) was 0.373. It also gave a relative viability (SK-MES-1; first compound 0.8 µM) of 0.482, a relative viability (SK-MES-1; first compound 2.53 µM) of 0.403 and a relative viability (SK-MES-1; first compound 8 µM) of 0.336. The relative viability (SW 1573; first compound 0.253 µM) was 0.518, the relative viability (SW 1573; first compound 0.8 µM) was 0.483 and the relative viability (SW 1573; first compound 2.53 µM) was 0.504. For the same compound, the relative viability (SW 1573; first compound 8 µM) was 0.524.
